# Like-named read-outs stand apart in the source and are kept apart here.
# Legend:
# [1] = target: T1, full length LRRK2 protein (Homo sapiens, UniProt Q5S007); experiment: In vitro LRRKtide kinase assay with full length recombinant LRRK2, dose-response (IC50/pIC50); type: biochemical
# T1 construct: compounds were tested in triplicate with full length LRRK2 protein; made in house
# LRRK2 = details: 2011, read-out: IC50 in vitro LRRK2, published, cited from earlier work
# LRRK2 phospho-Ser935 = target: T2, LRRK2 phospho-Ser935 (Homo sapiens, UniProt Q5S007); experiment: Cellular LRRK2 phosphoserine 935 dephosphorylation spotblot assay in SH-SY5Y cells stably expressing 3xFlag-LRRK2; type: cell-based; details: for Phosphorylation level relative to solvent (%) (cellular pS935 assay): @ 5 μM for 2 h, SH-SY5Y stably expressing LRRK2, pS935/total LRRK2; for Cellular pS935 (% @ 5 μM): pS935 level as % of control, 5 μM for 2 h
# T2 construct: expressed in transfected cells
# T2 sequence (Q5S007 whole entry): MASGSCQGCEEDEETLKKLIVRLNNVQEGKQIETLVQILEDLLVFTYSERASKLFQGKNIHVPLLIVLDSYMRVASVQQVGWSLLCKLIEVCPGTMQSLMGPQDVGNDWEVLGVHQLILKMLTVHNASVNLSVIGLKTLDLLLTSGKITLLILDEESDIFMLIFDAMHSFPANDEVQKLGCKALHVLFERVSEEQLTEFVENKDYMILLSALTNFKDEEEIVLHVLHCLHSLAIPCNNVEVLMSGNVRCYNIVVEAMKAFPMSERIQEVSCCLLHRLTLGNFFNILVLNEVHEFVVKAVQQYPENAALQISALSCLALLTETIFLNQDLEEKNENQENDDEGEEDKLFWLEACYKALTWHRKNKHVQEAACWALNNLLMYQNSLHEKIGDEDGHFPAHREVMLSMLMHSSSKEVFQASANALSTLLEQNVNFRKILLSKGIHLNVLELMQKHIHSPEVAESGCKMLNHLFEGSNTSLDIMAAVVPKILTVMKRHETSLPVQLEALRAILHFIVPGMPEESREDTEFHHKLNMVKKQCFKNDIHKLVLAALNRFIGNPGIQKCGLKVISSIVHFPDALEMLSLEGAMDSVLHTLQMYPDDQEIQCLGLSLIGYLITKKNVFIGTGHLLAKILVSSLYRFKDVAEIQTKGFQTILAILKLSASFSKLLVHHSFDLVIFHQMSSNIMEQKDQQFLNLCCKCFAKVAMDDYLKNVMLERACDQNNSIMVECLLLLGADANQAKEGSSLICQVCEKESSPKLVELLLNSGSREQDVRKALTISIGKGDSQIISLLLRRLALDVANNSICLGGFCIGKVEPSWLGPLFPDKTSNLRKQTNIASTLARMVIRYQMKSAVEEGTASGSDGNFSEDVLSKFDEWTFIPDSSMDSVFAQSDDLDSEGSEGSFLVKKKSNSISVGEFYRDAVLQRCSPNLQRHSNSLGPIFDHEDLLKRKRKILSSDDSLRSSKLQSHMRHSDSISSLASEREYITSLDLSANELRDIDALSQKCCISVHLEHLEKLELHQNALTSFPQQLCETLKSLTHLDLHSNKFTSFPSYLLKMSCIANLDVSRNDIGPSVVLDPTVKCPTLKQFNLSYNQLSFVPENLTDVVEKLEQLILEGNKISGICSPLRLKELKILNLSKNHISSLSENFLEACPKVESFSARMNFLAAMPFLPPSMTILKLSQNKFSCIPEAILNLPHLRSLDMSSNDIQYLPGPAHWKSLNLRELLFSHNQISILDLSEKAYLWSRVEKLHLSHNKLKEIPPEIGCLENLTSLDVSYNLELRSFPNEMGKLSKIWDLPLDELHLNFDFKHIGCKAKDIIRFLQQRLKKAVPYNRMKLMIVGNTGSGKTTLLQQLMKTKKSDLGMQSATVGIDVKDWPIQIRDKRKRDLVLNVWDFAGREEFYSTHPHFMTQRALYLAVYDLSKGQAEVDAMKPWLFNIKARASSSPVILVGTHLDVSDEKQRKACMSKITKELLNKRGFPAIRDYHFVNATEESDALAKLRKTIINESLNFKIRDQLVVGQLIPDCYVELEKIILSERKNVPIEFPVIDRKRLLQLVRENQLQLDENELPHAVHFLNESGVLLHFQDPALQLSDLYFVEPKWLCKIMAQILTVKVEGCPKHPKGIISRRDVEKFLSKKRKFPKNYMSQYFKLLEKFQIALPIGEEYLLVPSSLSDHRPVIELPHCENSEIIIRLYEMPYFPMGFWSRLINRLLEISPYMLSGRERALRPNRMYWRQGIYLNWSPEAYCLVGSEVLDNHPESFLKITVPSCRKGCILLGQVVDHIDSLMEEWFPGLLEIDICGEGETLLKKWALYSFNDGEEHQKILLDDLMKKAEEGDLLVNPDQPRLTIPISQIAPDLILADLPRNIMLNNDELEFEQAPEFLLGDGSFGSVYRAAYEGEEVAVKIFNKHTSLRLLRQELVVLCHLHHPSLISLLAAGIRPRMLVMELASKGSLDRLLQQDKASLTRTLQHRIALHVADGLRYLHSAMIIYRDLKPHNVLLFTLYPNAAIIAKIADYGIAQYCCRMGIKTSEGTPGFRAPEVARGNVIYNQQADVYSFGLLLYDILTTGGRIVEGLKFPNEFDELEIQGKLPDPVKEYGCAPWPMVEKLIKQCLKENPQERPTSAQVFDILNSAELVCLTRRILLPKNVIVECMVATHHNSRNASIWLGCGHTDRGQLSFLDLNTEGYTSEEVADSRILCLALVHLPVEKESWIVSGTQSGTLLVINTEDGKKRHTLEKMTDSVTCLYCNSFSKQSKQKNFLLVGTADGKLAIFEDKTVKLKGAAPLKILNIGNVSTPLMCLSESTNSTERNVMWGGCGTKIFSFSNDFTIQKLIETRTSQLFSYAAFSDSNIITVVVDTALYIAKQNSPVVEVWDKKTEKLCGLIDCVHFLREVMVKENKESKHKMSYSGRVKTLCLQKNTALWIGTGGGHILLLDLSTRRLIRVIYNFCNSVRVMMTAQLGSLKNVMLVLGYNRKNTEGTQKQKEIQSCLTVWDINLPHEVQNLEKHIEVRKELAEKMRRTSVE
# LRRK2 pS935 [2] = system: LRRK2 pS935; parameters: method as in Hermanson et al., 2012; details: ref Hermanson et al., 2012; read-out: IC50 pS935 levels, time-resolved FRET; cited from earlier work
# LRRK2 pS935 [3] = system: LRRK2 pS935; parameters: method as in Dzamko et al., 2010; Deng et al., 2011; details: ref Dzamko et al., 2010; Deng et al., 2011; read-out: IC50 pS935 levels, western blot; cited from earlier work
# LRRK2 pS935 [4] = system: LRRK2 pS935; parameters: method as in Delbroek et al., 2013; details: ref Delbroek et al., 2013; read-out: IC50 pS935 levels, ELISA; cited from earlier work
# [5] = target: T3, GST-tagged truncated LRRK2 containing residues 970 to 2527 (Homo sapiens, UniProt Q5S007); experiment: In vitro LRRKtide peptide-substrate kinase assay, single dose testing (10 μM); type: biochemical; details: LRRKtide assay @ 10 μM inhibitor; GST-LRRK2 970-2527; 10 μM ATP; mean, N = 3; solvent control = 100%
# T3 construct: GST-tagged truncated LRRK2 containing residues 970 to 2527 (Life Technologies); purchased Life Technologies
# T3 sequence (Q5S007 970-2527): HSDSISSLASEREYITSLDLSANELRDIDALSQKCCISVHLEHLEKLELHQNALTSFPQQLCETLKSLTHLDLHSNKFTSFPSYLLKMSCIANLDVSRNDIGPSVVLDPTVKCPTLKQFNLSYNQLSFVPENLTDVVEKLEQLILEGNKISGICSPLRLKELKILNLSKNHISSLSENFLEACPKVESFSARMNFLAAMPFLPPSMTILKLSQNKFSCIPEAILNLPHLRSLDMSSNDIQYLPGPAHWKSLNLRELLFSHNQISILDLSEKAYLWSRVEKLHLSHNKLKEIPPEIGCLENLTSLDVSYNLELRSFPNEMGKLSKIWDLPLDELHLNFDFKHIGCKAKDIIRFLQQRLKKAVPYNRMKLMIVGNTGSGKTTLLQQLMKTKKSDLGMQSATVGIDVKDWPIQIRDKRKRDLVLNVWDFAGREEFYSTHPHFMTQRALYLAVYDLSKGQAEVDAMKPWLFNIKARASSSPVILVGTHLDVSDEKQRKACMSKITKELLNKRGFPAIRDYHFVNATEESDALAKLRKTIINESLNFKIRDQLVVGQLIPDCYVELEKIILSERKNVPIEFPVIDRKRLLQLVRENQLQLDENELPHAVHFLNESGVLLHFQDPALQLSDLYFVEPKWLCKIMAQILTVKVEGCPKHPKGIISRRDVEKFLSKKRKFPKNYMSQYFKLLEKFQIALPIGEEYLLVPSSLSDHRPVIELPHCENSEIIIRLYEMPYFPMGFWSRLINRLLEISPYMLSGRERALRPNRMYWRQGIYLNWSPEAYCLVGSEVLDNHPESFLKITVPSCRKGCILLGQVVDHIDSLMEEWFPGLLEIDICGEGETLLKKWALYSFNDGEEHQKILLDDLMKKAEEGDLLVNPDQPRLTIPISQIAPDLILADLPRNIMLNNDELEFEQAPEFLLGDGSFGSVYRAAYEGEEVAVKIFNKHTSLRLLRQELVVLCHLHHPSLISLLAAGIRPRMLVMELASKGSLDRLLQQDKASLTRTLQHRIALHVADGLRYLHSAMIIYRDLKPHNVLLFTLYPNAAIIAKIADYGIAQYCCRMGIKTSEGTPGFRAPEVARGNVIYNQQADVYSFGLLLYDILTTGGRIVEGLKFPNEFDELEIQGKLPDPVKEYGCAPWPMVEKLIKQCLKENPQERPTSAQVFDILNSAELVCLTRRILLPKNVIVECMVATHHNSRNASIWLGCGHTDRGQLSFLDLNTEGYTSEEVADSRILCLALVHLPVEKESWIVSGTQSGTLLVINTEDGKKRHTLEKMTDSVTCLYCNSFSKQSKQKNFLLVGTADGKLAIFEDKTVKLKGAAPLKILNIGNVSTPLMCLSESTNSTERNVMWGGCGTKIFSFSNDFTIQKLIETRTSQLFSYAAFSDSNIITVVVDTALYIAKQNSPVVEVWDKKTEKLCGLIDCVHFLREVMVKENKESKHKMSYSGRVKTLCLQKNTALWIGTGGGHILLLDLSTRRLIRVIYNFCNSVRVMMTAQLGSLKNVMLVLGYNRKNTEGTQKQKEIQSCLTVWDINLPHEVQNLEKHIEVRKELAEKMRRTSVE
# [6] = LRRKtide phosphorylation, dose-response
# [7] = LRRKtide phosphorylation, dose-response, read-out: IC50 in vitro (lrrktide)
# [8] = SH-SY5Y cells with stable expression of LRRK2
# [9] = pS935 dephosphorylation, SH-SY5Y cells with stable expression of LRRK2, read-out: IC50 cellular (pS935)
# T1 sequence (Q5S007 whole entry): as the sequence (Q5S007 whole entry) above
Compound,% LRRKtide phosphorylation relative to solvent [5],"pIC50 in vitro (lrrktide) [1, 6]","IC50 [1, 7]",Phosphorylation level relative to solvent (%) (cellular pS935 assay) (LRRK2 phospho-Ser935),Cellular pS935 (% @ 5 μM) (LRRK2 phospho-Ser935; [8]),also measured
COc1cc(N2CCOCC2)ccc1Nc1ncc(F)c(Nc2ccccc2NS(C)(=O)=O)n1 [CZC-25146],–,–,–,–,–,IC50 ([1]; read-out: IC50 (LRRKtide phosphorylation assay)): 0.00178 µM; IC50 (LRRK2; ref Ramsden et al.): 0.00476 µM; IC50 (LRRK2 phospho-Ser935; read-out: IC50 of phosphorylation at LRRK2 Ser935 (cellular spotblot)): 0.061 µM
COc1cc(C(=O)N2CCC(N3CCN(C)CC3)CC2)ccc1Nc1ncc2c(n1)N(C)c1ccccc1C(=O)N2C [LRRK2-IN1],–,–,–,–,–,"IC50 (LRRK2 pS935 [2]): 0.09 to 0.2 µM; IC50 ([1]; full length LRRK2, 10 μM ATP, read-out: IC50 (LRRKtide phosphorylation assay)): 0.00354 µM; IC50 (LRRK2 pS935 [3]): ~0.1 µM; IC50 (LRRK2; 100 μM ATP in original study, ref Deng et al.): 0.013 µM; IC50 (LRRK2 pS935 [4]): 0.05 to 0.1 µM; IC50 (LRRK2 phospho-Ser935; SH-SY5Y stably overexpressing 3flag-LRRK2 WT, N ≥ 5, read-out: IC50 of phosphorylation at LRRK2 Ser935 (cellular spotblot)): 0.239 µM"
COc1ccc(CNc2nc(N(CCO)CCO)nc3c2ncn3C(C)C)cc1 [Cdk2 inhibitor III],60.51%,<5,> 10 µM,100.49%,100.49%,–
COc1cc2ncnc(Nc3ccc(OCc4ccccc4)cc3)c2cc1OC [EGFR/ErbB-2 inhibitor],68.24%,<5,> 10 µM,67.43%,67.43%,–
O=C1Nc2ccc(Br)cc2/C1=C/c1cc2c([nH]1)CCCC2 [VEGF receptor 2 kinase inhibitor II],4.13%,7.44,0.0363 µM,37.26%,37.26%,"pIC50 cellular (pS935) (LRRK2 phospho-Ser935; pS935 dephosphorylation, SH-SY5Y cells with stable expression of LRRK2): <5.7; IC50 (LRRK2 phospho-Ser935; [9]): > 2 µM"
COc1cc2ncnc(Nc3ccc(O)c(Br)c3)c2cc1OC [JAK3 inhibitor II],1.86%,–,1.2 µM,63.02%,63.02%,–
CCN(CC)CCNC(=O)c1c(C)[nH]c(/C=C2\C(=O)Nc3ccc(Cl)cc32)c1C [SU11652],0.79%,–,0.0109 µM,14.19%,14.19%,IC50 (LRRK2 phospho-Ser935; [9]): 0.316 µM
CCC(=O)Nc1ccc2ncnc(Nc3cccc(Br)c3)c2c1 [PD 174265],32.67%,5.05,8.87 µM,67.74%,67.74%,–
